# Experimental data as given in patent EP2951180B1, “2,6,7,8 SUBSTITUTED PURINES AS HDM2 INHIBITORS” (Merck Sharp & Dohme Corp., priority 2013, dated 2014).
# Target: T1, HDM2 (Homo sapiens, UniProt Q00987)
# T1 construct: Thioredoxin (N); made in house; host or cells: E. coli strain BL21(DE3)Rosetta
# Experiment: FRET assay (HDM2 inhibition; method not described in this part)
# Assay type: binding
# Settings: Table 4
# T1 sequence (Q00987 17-125): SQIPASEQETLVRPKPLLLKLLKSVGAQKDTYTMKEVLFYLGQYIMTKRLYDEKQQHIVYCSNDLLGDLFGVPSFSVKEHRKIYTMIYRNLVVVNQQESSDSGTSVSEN
row,Structure (SMILES),IC50 [nM]
1,"Cc1ccc(OCCO)c(-c2nc3nc(C(=O)O)nc(N[C@H](C)C4CC4)c3n2Cc2ccc(Cl)cc2)c1 [Example 4.10, (R)-7-(4-chlorobenzyl)-6-((1-cyclopropylethyl)amino)-8-(2-(2-hydroxyethoxy)-5-methylphenyl)-7H-purine-2-carboxylic acid]",238
2,"Cc1ccc(OCCC(=O)O)c(-c2nc3nc(C(=O)O)nc(N[C@H](C)C4CC4)c3n2Cc2ccc(Cl)cc2)c1 [Example 4.11, (R)-8-(2-(2-carboxyethoxy)-5-methylphenyl)-7-(4-chlorobenzyl)-6-((1-cyclopropylethyl)amino)-7H-purine-2-carboxylic acid]",312
3,"Cc1ccc(OCCC(=O)NCCO)c(-c2nc3nc(C(=O)O)nc(N[C@H](C)C4CC4)c3n2Cc2ccc(Cl)cc2)c1 [Example 4.12, (R)-7-(4-chlorobenzyl)-6-((1-cyclopropylethyl)amino)-8-(2-(3-((2-hydroxyethyl)amino)-3-oxopropoxy)-5-methylphenyl)-7H-purine-2-carboxylic acid]",348
4,"CNC(=O)CCOc1ccc(C)cc1-c1nc2nc(C(=O)O)nc(N[C@H](C)C3CC3)c2n1Cc1ccc(Cl)cc1 [Example 4.13, (R)-7-(4-chlorobenzyl)-6-((1-cyclopropylethyl)amino)-8-(5-methyl-2-(3-(methylamino)-3-oxopropoxy)phenyl)-7H-purine-2-carboxylic acid]",487
5,"Cc1ccc(OCCCN2CCOCC2)c(-c2nc3nc(C(=O)O)nc(N[C@H](C)C4CC4)c3n2Cc2ccc(Cl)cc2)c1 [Example 4.14, (R)-7-(4-chlorobenzyl)-6-((1-cyclopropylethyl)amino)-8-(5-methyl-2-(3-morpholinopropoxy)phenyl)-7H-purine-2-carboxylic acid]",212
6,"COCCN(CCCOc1ccc(C)cc1-c1nc2nc(C(=O)O)nc(N[C@H](C)C3CC3)c2n1Cc1ccc(Cl)cc1)CCOC [Example 4.15, (R)-8-(2-(3-(bis(2-methoxyethyl)amino)propoxy)-5-methylphenyl)-7-(4-chlorobenzyl)-6-((1-cyclopropylethyl)amino)-7H-purine-2-carboxylic acid]",667
7,"Cc1ccc(OCCCO)c(-c2nc3nc(C(=O)O)nc(N[C@H](C)C4CC4)c3n2Cc2ccc(C#N)cc2)c1 [Example 4.16, (R)-7-(4-cyanobenzyl)-6-((1-cyclopropylethyl)amino)-8-(2-(3-hydroxypropoxy)-5-methylphenyl)-7H-purine-2-carboxylic acid]",481
8,"Cc1ccc(OCCCN2CCN(C)CC2)c(-c2nc3nc(C(=O)O)nc(N[C@H](C)C4CC4)c3n2Cc2ccc(Cl)cc2)c1 [Example 4.17, (R)-7-(4-chlorobenzyl)-6-(1-cyclopropylethylamino)-8-(5-methyl-2-(3-(4-methylpiperazin-1-yl)propoxy)phenyl)-7H-purine-2-carboxylic acid]",507
9,"Cc1ccc(O)c(-c2nc3nc(C(=O)O)nc(N[C@H](C)C4CC4)c3n2Cc2ccc(Cl)cc2)c1 [Example 4.18, (R)-7-(4-chlorobenzyl)-6-((1-cyclopropylethyl)amino)-8-(2-hydroxy-5-methylphenyl)-7H-purine-2-carboxylic acid]",347
10,"Cc1ccc(OCC(O)CO)c(-c2nc3nc(C(=O)O)nc(N[C@H](C)C4CC4)c3n2Cc2ccc(Cl)cc2)c1 (stereo partly drawn) [Example 4.19, 7-(4-chlorobenzyl)-6-(((R)-1-cyclopropylethyl)amino)-8-(2-(2,3-dihydroxypropoxy)-5-methylphenyl)-7H-purine-2-carboxylic acid]",586
11,"Cc1ccc(OCCCO)c(-c2nc3nc(C(=O)O)nc(N[C@H](C)C4CC4)c3n2Cc2ccc(Cl)cc2)c1 [Example 4.20, (R)-7-(4-chlorobenzyl)-6-((1-cyclopropylethyl)amino)-8-(2-(3-hydroxypropoxy)-5-methylphenyl)-7H-purine-2-carboxylic acid]",112

# Same assay, conditions: Table 5
row,Structure (SMILES),IC50 [nM]
1,"Cc1cccc(-c2nc3nc(C(=O)O)nc(N[C@H](C)C4CC4)c3n2C(C)c2ccc(Cl)cc2)c1 (stereo partly drawn) [Example 5.1, 7-(1-(4-chlorophenyl)ethyl)-6-(((R)-1-cyclopropylethyl)amino)-8-(3-methylphenyl)-7H-purine-2-carboxylic acid]",855
2,"Cc1cccc(-c2nc3nc(C(=O)O)nc(NCC4CC4)c3n2C(C)c2ccc(Cl)cc2)c1 (stereo not shown) [Example 5.2, 7-(1-(4-chlorophenyl)ethyl)-6-((cyclopropylmethyl)amino)-8-(m-tolyl)-7H-purine-2-carboxylic acid]",984
3,"Cc1cccc(-c2nc3nc(C(=O)O)nc(N[C@@H](C)C4CC4)c3n2C(C)c2ccc(Cl)cc2)c1 (stereo partly drawn) [Example 5.3, 7-(1-(4-chlorophenyl)ethyl)-6-((S)-1-cyclopropylethylamino)-8-(3-methylphenyl)-7H-purine-2-carboxylic acid]",601
4,"Cc1cccc(-c2nc3nc(C(=O)O)nc(N[C@H](C)C4CC4)c3n2Cc2ccc(F)c(C(F)(F)F)c2)c1 [Example 5.4, 6-{[(1R)-1-cyclopropylethyl]amino}-7-[4-fluoro-3-(trifluoromethyl)benzyl]-8-(3-methylphenyl)-7H-purine-2-carboxylic acid]",4140
5,"CCOc1ccc(C(F)(F)F)cc1Cn1c(-c2cccc(C)c2)nc2nc(C(=O)O)nc(N[C@H](C)C3CC3)c21 [Example 5.5, 6-{[(1R)-1-cyclopropylethyl]amino}-7-(2-ethoxy-5-(trifluoromethyl)benzyl)-8-(3-methylphenyl)-7H-purine-2-carboxylic acid]",2740
6,"CCOc1ccccc1Cn1c(-c2cccc(C)c2)nc2nc(C(=O)O)nc(N[C@H](C)C3CCC3)c21 [Example 5.6, 6-{[(1R)-1-cyclobutylethyl]amino}-7-(2-ethoxybenzyl)-8-(3-methylphenyl)-7H-purine-2-carboxylic acid]",1840
7,"Cc1cccc(-c2nc3nc(C(=O)O)nc(N[C@H](C)C4CC4)c3n2Cc2ccc(C(C)C)cc2)c1 [Example 5.7, 6-{[(1R)-1-cyclopropylethyl]amino}-7-[4-(1-methylethyl)benzyl]-8-(3-methylphenyl)-7H-purine-2-carboxylic acid]",3550
8,"Cc1cccc(-c2nc3nc(C(=O)O)nc(N[C@H](C)C4CC4)c3n2Cc2ccc(OC(F)(F)F)cc2)c1 [Example 5.8, 6-{[(1R)-1-cyclopropylethyl]amino}-8-(3-methylphenyl)-7-[4-(trifluoromethoxy)benzyl]-7H-purine-2-carboxylic acid]",149
9,"Cc1cccc(-c2nc3nc(C(=O)O)nc(N[C@H](C)C4CC4)c3n2Cc2ccc(C(F)(F)F)c(F)c2)c1 [Example 5.9, 6-{[(1R)-1-cyclopropylethyl]amino}-7-[3-fluoro-4-(trifluoromethyl)benzyl]-8-(3-methylphenyl)-7H-purine-2-carboxylic acid]",119
10,"Cc1cccc(-c2nc3nc(C(=O)O)nc(N[C@H](C)C4CCC4)c3n2Cc2ccc(C3CC3)cc2)c1 [Example 5.10, 6-{[(1R)-1-cyclobutylethyl]amino}-7-(4-cyclopropylbenzyl)-8-(3-methylphenyl)-7H-purine-2-carboxylic acid]",270
11,"Cc1cccc(-c2nc3nc(C(=O)O)nc(N[C@H](C)C4CCC4)c3n2Cc2ccc(Cl)cc2Cl)c1 [Example 5.11, 6-{[(1R)-1-cyclobutylethyl]amino}-7-(2,4-dichlorobenzyl)-8-(3-methylphenyl)-7H-purine-2-carboxylic acid]",259
12,"Cc1cccc(-c2nc3nc(C(=O)O)nc(N[C@H](C)C4CCC4)c3n2Cc2ccc(C(F)(F)F)cc2Cl)c1 [Example 5.12, 7-[2-chloro-4-(trifluoromethyl)benzyl]-6-{[(1R)-1-cyclobutylethyl]amino}-8-(3-methylphenyl)-7H-purine-2-carboxylic acid]",94.6
13,"Cc1cccc(-c2nc3nc(C(=O)O)nc(N[C@H](C)C4CCC4)c3n2Cc2ccc(OC(F)F)cc2)c1 [Example 5.13, 6-{[(1R)-1-cyclobutylethyl]amino}-7-[4-(difluoromethoxy)benzyl]-8-(3-methylphenyl)-7H-purine-2-carboxylic acid]",128
14,"Cc1cccc(-c2nc3nc(C(=O)O)nc(N[C@H](C)C4CCC4)c3n2Cc2ccc(OC(F)(F)F)c(F)c2)c1 [Example 5.14, 6-{[(1R)-1-cyclobutylethyl]amino}-7-[3-fluoro-4-(trifluoromethoxy)benzyl]-8-(3-methylphenyl)-7H-purine-2-carboxylic acid]",36.4
15,"Cc1cccc(-c2nc3nc(C(=O)O)nc(N[C@H](C)C4CC4)c3n2Cc2ccc(C(F)(F)F)c(Cl)c2)c1 [Example 5.15, 7-[3-chloro-4-(trifluoromethyl)benzyl]-6-{[(1R)-1-cyclopropylethyl]amino}-8-(3-methylphenyl)-7H-purine-2-carboxylic acid]",609
16,"Cc1cccc(-c2nc3nc(C(=O)O)nc(N[C@H](C)C4CC4)c3n2Cc2ccccc2C(F)(F)F)c1 [Example 5.16, 6-{[(1R)-1-cyclopropylethyl]amino}-8-(3-methylphenyl)-7-[2-(trifluoromethyl)benzyl]-7H-purine-2-carboxylic acid]",8330
17,"Cc1cccc(-c2nc3nc(C(=O)O)nc(N[C@H](C)C4CCC4)c3n2Cc2ccc(C(F)(F)F)cc2F)c1 [Example 5.17, 6-{[(1R)-1-cyclobutylethyl]amino}-7-[2-fluoro-4-(trifluoromethyl)benzyl]-8-(3-methylphenyl)-7H-purine-2-carboxylic acid]",74.3
18,"CCOc1cc(C(F)(F)F)ccc1Cn1c(-c2cccc(C)c2)nc2nc(C(=O)O)nc(N[C@H](C)C3CCC3)c21 [Example 5.18, 6-{[(1R)-1-cyclobutylethyl]amino}-7-[2-ethoxy-4-(trifluoromethyl)benzyl]-8-(3-methylphenyl)-7H-purine-2-carboxylic acid]",207
19,"COc1ccc(Cn2c(-c3cccc(C)c3)nc3nc(C(=O)O)nc(N[C@H](C)C4CCC4)c32)cc1 [Example 5.19, 6-{[(1R)-1-cyclobutylethyl]amino}-7-(4-methoxybenzyl)-8-(3-methylphenyl)-7H-purine-2-carboxylic acid]",582
20,"CCc1ccc(Cn2c(-c3cccc(C)c3)nc3nc(C(=O)O)nc(N[C@H](C)C4CC4)c32)cc1 [Example 5.20, 6-{[(1R)-1-cyclopropylethyl]amino}-7-(4-ethylbenzyl)-8-(3-methylphenyl)-7H-purine-2-carboxylic acid]",1200
